Reference: paper PMC5218480 (PLoS ONE, 2017)

Tested on: MV-4-11 cells
Assay: Gene expression microarray analysis (Affymetrix PrimeView) and GSEA
Assay type: cell-based, human
Parameters: RFU PODN (11730768_x_at) / Fold change /veh PODN (11730768_x_at) / RFU LINC00158 (11744669_a_at) / Fold change /veh LINC00158 (11744669_a_at) / RFU DUSP10 (11751237_a_at) / Fold change /veh DUSP10 (11751237_a_at) / RFU ID3 (11757404_x_at) / Fold change /veh ID3 (11757404_x_at) / RFU PLEKHG5 (11737974_s_at) / Fold change /veh PLEKHG5 (11737974_s_at) / RFU LRRC4B (11730491_at) / Fold change /veh LRRC4B (11730491_at) / RFU GIMAP4 (11747438_a_at) / Fold change /veh GIMAP4 (11747438_a_at) / RFU KRT8 (11758183_x_at) / Fold change /veh KRT8 (11758183_x_at) / RFU CNN1 (11734310_a_at) / Fold change /veh CNN1 (11734310_a_at) / RFU VPS37D (11726825_at) / Fold change /veh VPS37D (11726825_at) / RFU C10orf10 (11716522_x_at) / Fold change /veh C10orf10 (11716522_x_at) / RFU KIR2DL2 /// KIR2DL4 /// KIR2DL5A /// KIR2DL5B /// KIR2DS1 /// KIR2DS2 /// KIR2DS3 /// KIR2DS4 /// KIR3DL3 /// KIR3DL3 /// KIR3DS1 (11738374_at) / Fold change /veh KIR2DL2 /// KIR2DL4 /// KIR2DL5A /// KIR2DL5B /// KIR2DS1 /// KIR2DS2 /// KIR2DS3 /// KIR2DS4 /// KIR3DL3 /// KIR3DL3 /// KIR3DS1 (11738374_at) / RFU C1QL1 (11718748_at) / Fold change /veh C1QL1 (11718748_at) / RFU TMPRSS4 (11747572_a_at) / Fold change /veh TMPRSS4 (11747572_a_at) / RFU HAMP (11756126_x_at) / Fold change /veh HAMP (11756126_x_at) / RFU RNFT2 (11725882_a_at) / Fold change /veh RNFT2 (11725882_a_at) / RFU NR4A2 (11747474_a_at) / Fold change /veh NR4A2 (11747474_a_at) / RFU ABCC12 (11746883_a_at) / Fold change /veh ABCC12 (11746883_a_at) / RFU TMEM136 (11760407_x_at) / Fold change /veh TMEM136 (11760407_x_at) / RFU CLDN22 /// WWC2 (11732394_at) / Fold change /veh CLDN22 /// WWC2 (11732394_at) / RFU HLA-DPB1 (11760878_x_at) / Fold change /veh HLA-DPB1 (11760878_x_at) / RFU SPINT1 (11716480_a_at) / Fold change /veh SPINT1 (11716480_a_at) / RFU GAP43 (11754022_s_at) / Fold change /veh GAP43 (11754022_s_at) / RFU A4GNT (11735810_at) / Fold change /veh A4GNT (11735810_at) / RFU PRB3 (11715151_x_at) / Fold change /veh PRB3 (11715151_x_at) / RFU TUBB4B (11761932_at) / Fold change /veh TUBB4B (11761932_at) / RFU CAPN14 (11732068_a_at) / Fold change /veh CAPN14 (11732068_a_at) / RFU TMCC2 (11721928_a_at) / Fold change /veh TMCC2 (11721928_a_at) / RFU IRGQ (11745062_a_at) / Fold change /veh IRGQ (11745062_a_at) / RFU FAM174B (11720279_a_at) / Fold change /veh FAM174B (11720279_a_at) / RFU TMPRSS4 (11748680_a_at) / Fold change /veh TMPRSS4 (11748680_a_at) / RFU FAM212B (11763350_a_at) / Fold change /veh FAM212B (11763350_a_at) / RFU PLEKHG5 (11743358_a_at) / Fold change /veh PLEKHG5 (11743358_a_at) / RFU ZSCAN30 (11745921_a_at) / Fold change /veh ZSCAN30 (11745921_a_at) / RFU CMKLR1 (11741424_a_at) / Fold change /veh CMKLR1 (11741424_a_at) / RFU LOC101060620 /// MAPK8IP1 (11723275_at) / Fold change /veh LOC101060620 /// MAPK8IP1 (11723275_at) / RFU SPTSSB (11747773_x_at) / Fold change /veh SPTSSB (11747773_x_at) / RFU PRSS12 (11739890_at) / Fold change /veh PRSS12 (11739890_at) / RFU BIN1 (11741810_x_at) / Fold change /veh BIN1 (11741810_x_at) / RFU WNT11 (11732464_a_at) / Fold change /veh WNT11 (11732464_a_at) / RFU C10orf10 (11716521_a_at) / Fold change /veh C10orf10 (11716521_a_at) / RFU C5orf56 (11738089_at) / Fold change /veh C5orf56 (11738089_at) / RFU CYB561 (11721691_x_at) / Fold change /veh CYB561 (11721691_x_at) / RFU ANKRD19P (11752326_a_at) / Fold change /veh ANKRD19P (11752326_a_at) / RFU OR2T12 /// OR2T33 /// OR2T8 (11738714_s_at) / Fold change /veh OR2T12 /// OR2T33 /// OR2T8 (11738714_s_at) / RFU VCAN (11748164_a_at) / Fold change /veh VCAN (11748164_a_at) / RFU JSRP1 (11732532_at) / Fold change /veh JSRP1 (11732532_at) / RFU KRTAP10-11 (11738290_x_at) / Fold change /veh KRTAP10-11 (11738290_x_at) / RFU MYO3A (11730013_a_at) / Fold change /veh MYO3A (11730013_a_at) / RFU EBF3 (11725865_a_at) / Fold change /veh EBF3 (11725865_a_at) / RFU CAMK2N1 (11719241_x_at) / Fold change /veh CAMK2N1 (11719241_x_at) / RFU C5orf56 (11738088_a_at) / Fold change /veh C5orf56 (11738088_a_at) / RFU OLFML3 (11715873_a_at) / Fold change /veh OLFML3 (11715873_a_at) / RFU LOC100653217 /// NTM (11731650_a_at) / Fold change /veh LOC100653217 /// NTM (11731650_a_at) / RFU MAPK11 (11762145_a_at) / Fold change /veh MAPK11 (11762145_a_at) / RFU FIZ1 (11724087_x_at) / Fold change /veh FIZ1 (11724087_x_at) / RFU OASL (11726364_x_at) / Fold change /veh OASL (11726364_x_at) / RFU SOX15 (11748057_x_at) / Fold change /veh SOX15 (11748057_x_at) / RFU CD79A (11719716_a_at) / Fold change /veh CD79A (11719716_a_at) / RFU HIST1H1D (11736915_at) / Fold change /veh HIST1H1D (11736915_at) / RFU CASKIN2 (11723855_a_at) / Fold change /veh CASKIN2 (11723855_a_at) / RFU LOC730098 (11760151_x_at) / Fold change /veh LOC730098 (11760151_x_at) / RFU OR4N2 (11742367_at) / Fold change /veh OR4N2 (11742367_at) / RFU PRRT2 (11749266_a_at) / Fold change /veh PRRT2 (11749266_a_at) / RFU SNX32 (11753110_a_at) / Fold change /veh SNX32 (11753110_a_at) / RFU CDHR5 (11726645_a_at) / Fold change /veh CDHR5 (11726645_a_at) / RFU RCAN1 (11760418_a_at) / Fold change /veh RCAN1 (11760418_a_at) / RFU FAM167A (11723789_a_at) / Fold change /veh FAM167A (11723789_a_at) / RFU FAM26E (11764081_at) / Fold change /veh FAM26E (11764081_at) / RFU ISYNA1 (11749810_s_at) / Fold change /veh ISYNA1 (11749810_s_at) / RFU ACY1 (11761880_at) / Fold change /veh ACY1 (11761880_at) / RFU 11764098_at / Fold change /veh 11764098_at / RFU SAMD14 (11745864_x_at) / Fold change /veh SAMD14 (11745864_x_at) / RFU NPB (11741838_a_at) / Fold change /veh NPB (11741838_a_at) / RFU TMPRSS6 (11731388_a_at) / Fold change /veh TMPRSS6 (11731388_a_at) / RFU KRTAP10-2 (11738614_at) / Fold change /veh KRTAP10-2 (11738614_at) / RFU ARHGAP8 /// PRR5-ARHGAP8 (11727945_x_at) / Fold change /veh ARHGAP8 /// PRR5-ARHGAP8 (11727945_x_at) / RFU KRTAP5-7 /// NADSYN1 (11734609_at) / Fold change /veh KRTAP5-7 /// NADSYN1 (11734609_at) / RFU RASL12 (11751679_a_at) / Fold change /veh RASL12 (11751679_a_at) / RFU CDKN2B (11736163_a_at) / Fold change /veh CDKN2B (11736163_a_at) / RFU PRF1 (11729649_at) / Fold change /veh PRF1 (11729649_at) / RFU, ZNF638 /// ZNF638-IT1 / Fold change vs veh, ZNF638 /// ZNF638-IT1 / RFU, PANK3 / Fold change vs veh, PANK3 / RFU, SH3YL1 / Fold change vs veh, SH3YL1 / RFU, ZEB2 / Fold change vs veh, ZEB2 / RFU, NRIP1 / Fold change vs veh, NRIP1 / RFU, PTTG1IP / Fold change vs veh, PTTG1IP / RFU, CAPN2 / Fold change vs veh, CAPN2 / RFU, MED14 / Fold change vs veh, MED14 / RFU, SNORA58 / Fold change vs veh, SNORA58 / RFU, C1orf63 / Fold change vs veh, C1orf63 / RFU, LRRFIP1 / Fold change vs veh, LRRFIP1 / RFU, NDUFAF7 / Fold change vs veh, NDUFAF7 / RFU, SLC12A2 / Fold change vs veh, SLC12A2 / RFU, IBTK / Fold change vs veh, IBTK / RFU, ESF1 / Fold change vs veh, ESF1 / Fold change vs veh, TMEM50B / RFU, TAOK1 / Fold change vs veh, TAOK1 / RFU, ACBD3 / Fold change vs veh, ACBD3 / RFU, TMA16 / Fold change vs veh, TMA16 / RFU, RWDD3 / Fold change vs veh, RWDD3 / RFU, BCAT1 / Fold change vs veh, BCAT1 / RFU, EDEM3 / Fold change vs veh, EDEM3 / RFU, TMEM33 / Fold change vs veh, TMEM33 / RFU, WDR75 / Fold change vs veh, WDR75 / RFU, AHCTF1 / Fold change vs veh, AHCTF1 / RFU, TFRC / Fold change vs veh, TFRC / RFU, ZDHHC17 / Fold change vs veh, ZDHHC17 / RFU, NOM1 / Fold change vs veh, NOM1 / RFU, ARL8B / Fold change vs veh, ARL8B / RFU, ZBTB11 / Fold change vs veh, ZBTB11 / RFU, TAMM41 / Fold change vs veh, TAMM41 / RFU, KIAA1704 /// LOC100996395 / Fold change vs veh, KIAA1704 /// LOC100996395 / RFU, ING1 / Fold change vs veh, ING1 / RFU, TRMT61B / Fold change vs veh, TRMT61B / RFU, FUBP3 / Fold change vs veh, FUBP3 / RFU, TP53 / Fold change vs veh, TP53 / RFU, TNKS2 / Fold change vs veh, TNKS2 / RFU, ZFP14 / Fold change vs veh, ZFP14 / RFU, ACTR2 / Fold change vs veh, ACTR2 / RFU, PPP3R1 / Fold change vs veh, PPP3R1 / RFU, PIK3R1 / Fold change vs veh, PIK3R1 / RFU, HNRNPA1 / Fold change vs veh, HNRNPA1 / RFU, RNF170 / Fold change vs veh, RNF170 / RFU, ZNF28 / Fold change vs veh, ZNF28 / RFU, RNGTT / Fold change vs veh, RNGTT / RFU, OGT / Fold change vs veh, OGT / RFU, BRD1 / Fold change vs veh, BRD1 / RFU, MARS / Fold change vs veh, MARS / RFU, ZNF655 / Fold change vs veh, ZNF655 / RFU, FAHD1 / Fold change vs veh, FAHD1 / RFU, BDP1 / Fold change vs veh, BDP1 / RFU, LRRCC1 / Fold change vs veh, LRRCC1 / RFU, ARID1A / Fold change vs veh, ARID1A / RFU, ZNF146 / Fold change vs veh, ZNF146 / RFU, ZNF330 / Fold change vs veh, ZNF330 / RFU, GPN3 / Fold change vs veh, GPN3 / RFU, C9orf123 / Fold change vs veh, C9orf123 / RFU, N4BP2L2 / Fold change vs veh, N4BP2L2 / RFU, ARFIP1 / Fold change vs veh, ARFIP1 / RFU, FAM179B / Fold change vs veh, FAM179B / RFU, BCL10 / Fold change vs veh, BCL10 / RFU, UHRF1BP1L / Fold change vs veh, UHRF1BP1L / RFU, BET1 / Fold change vs veh, BET1 / RFU, CNOT2 / Fold change vs veh, CNOT2 / RFU, ZNF268 / Fold change vs veh, ZNF268 / Fold change vs veh, ZNF507 / RFU, DGCR2 / Fold change vs veh, DGCR2 / RFU, WDSUB1 / Fold change vs veh, WDSUB1 / Fold change vs veh, HSP90B1 /// MIR3652 / RFU, ADSS / Fold change vs veh, ADSS / RFU, GK / Fold change vs veh, GK / RFU, ZNF148 / Fold change vs veh, ZNF148 / RFU, TAF9 / Fold change vs veh, TAF9 / RFU, SLC1A5 / Fold change vs veh, SLC1A5 / RFU, SLMO2 / Fold change vs veh, SLMO2 / RFU, ABCC4 / Fold change vs veh, ABCC4 / RFU, LOC101060439 /// RAP1B / Fold change vs veh, LOC101060439 /// RAP1B / RFU, RFX7 / Fold change vs veh, RFX7 / RFU, GTPBP10 / Fold change vs veh, GTPBP10 / RFU, CNEP1R1 / Fold change vs veh, CNEP1R1 / RFU, BIVM-ERCC5 /// ERCC5 / Fold change vs veh, BIVM-ERCC5 /// ERCC5 / RFU, ILF3 / Fold change vs veh, ILF3 / RFU 11762660_at / Fold change /veh 11762660_at / RFU VCAN (11757783_s_at) / Fold change /veh VCAN (11757783_s_at) / RFU DDX43 (11728927_at) / Fold change /veh DDX43 (11728927_at) / RFU KRT8 (11758188_x_at) / Fold change /veh KRT8 (11758188_x_at) / RFU NKD1 (11759106_at) / Fold change /veh NKD1 (11759106_at) / RFU SRD5A1 (11742802_a_at) / Fold change /veh SRD5A1 (11742802_a_at) / RFU TPSAB1 /// TPSB2 (11721975_s_at) / Fold change /veh TPSAB1 /// TPSB2 (11721975_s_at) / RFU GSTM3 (11746129_a_at) / Fold change /veh GSTM3 (11746129_a_at) / RFU IL23R (11737362_x_at) / Fold change /veh IL23R (11737362_x_at) / RFU TMEM51 (11727254_a_at) / Fold change /veh TMEM51 (11727254_a_at) / RFU PIWIL2 (11732686_x_at) / Fold change /veh PIWIL2 (11732686_x_at) / RFU ORM1 (11744905_x_at) / Fold change /veh ORM1 (11744905_x_at) / RFU CCDC152 (11743942_at) / Fold change /veh CCDC152 (11743942_at) / RFU ECM1 (11717891_a_at) / Fold change /veh ECM1 (11717891_a_at) / RFU IL23R (11748794_a_at) / Fold change /veh IL23R (11748794_a_at) / RFU TNFAIP8L3 (11732012_x_at) / Fold change /veh TNFAIP8L3 (11732012_x_at) / RFU MBOAT4 (11741988_at) / Fold change /veh MBOAT4 (11741988_at) / RFU 11764193_at / Fold change /veh 11764193_at / RFU TMEM53 (11763286_at) / Fold change /veh TMEM53 (11763286_at) / RFU MAGEB2 (11727129_at) / Fold change /veh MAGEB2 (11727129_at) / RFU TMEM200A (11744735_a_at) / Fold change /veh TMEM200A (11744735_a_at) / RFU CCDC152 (11751479_a_at) / Fold change /veh CCDC152 (11751479_a_at) / RFU FAM211A (11726209_a_at) / Fold change /veh FAM211A (11726209_a_at) / RFU RGS16 (11746705_a_at) / Fold change /veh RGS16 (11746705_a_at) / RFU VCAN (11755009_s_at) / Fold change /veh VCAN (11755009_s_at) / RFU RHOB (11743442_s_at) / Fold change /veh RHOB (11743442_s_at) / RFU RGS16 (11720943_a_at) / Fold change /veh RGS16 (11720943_a_at) / RFU RGS16 (11720944_at) / Fold change /veh RGS16 (11720944_at) / RFU, VPS4B / Fold change vs veh, VPS4B / RFU, CREB1 / Fold change vs veh, CREB1 / RFU, DNAJC13 / Fold change vs veh, DNAJC13 / RFU, GNAQ / Fold change vs veh, GNAQ / RFU, CDK5R1 / Fold change vs veh, CDK5R1 / RFU, ZRANB3 / Fold change vs veh, ZRANB3 / RFU, CUL4A / Fold change vs veh, CUL4A / RFU, CCNY / Fold change vs veh, CCNY / RFU, UFL1 / Fold change vs veh, UFL1 / RFU, COG3 / Fold change vs veh, COG3 / RFU, DIAPH2 / Fold change vs veh, DIAPH2 / RFU, SKA2 / Fold change vs veh, SKA2 / RFU, AFF3 / Fold change vs veh, AFF3 / RFU, LMF1 / Fold change vs veh, LMF1 / RFU, IPO11 / Fold change vs veh, IPO11 / RFU, DFFB / Fold change vs veh, DFFB / RFU, FOXP1 / Fold change vs veh, FOXP1 / RFU, CARD8 / Fold change vs veh, CARD8 / RFU, STRN3 / Fold change vs veh, STRN3 / RFU, ADK / Fold change vs veh, ADK / RFU, RASSF2 / Fold change vs veh, RASSF2 / RFU, WIPF1 / Fold change vs veh, WIPF1 / RFU, LARP1B / Fold change vs veh, LARP1B / RFU, RASA1 / Fold change vs veh, RASA1 / RFU, RB1 / Fold change vs veh, RB1 / RFU, PPFIA1 / Fold change vs veh, PPFIA1 / RFU, MAT2A / Fold change vs veh, MAT2A / RFU, CCT5 / Fold change vs veh, CCT5 / RFU, WDR92 / Fold change vs veh, WDR92 / RFU, CUX1 / Fold change vs veh, CUX1 / RFU, TTC7A / Fold change vs veh, TTC7A / RFU, TMEM135 / Fold change vs veh, TMEM135 / RFU, DEPTOR / Fold change vs veh, DEPTOR / RFU, CPM / Fold change vs veh, CPM / RFU, DNAJB6 / Fold change vs veh, DNAJB6 / RFU, CACNA2D3 / Fold change vs veh, CACNA2D3 / RFU, DTX4 / Fold change vs veh, DTX4 / RFU, TFCP2 / Fold change vs veh, TFCP2 / RFU, GMCL1 /// GMCL1P1 / Fold change vs veh, GMCL1 /// GMCL1P1 / RFU, AEBP2 / Fold change vs veh, AEBP2 / RFU, SNHG1 /// SNORD22 /// SNORD25 /// SNORD26 /// SNORD27 /// SNORD28 /// SNORD29 /// SNORD31 / Fold change vs veh, SNHG1 /// SNORD22 /// SNORD25 /// SNORD26 /// SNORD27 /// SNORD28 /// SNORD29 /// SNORD31 / Fold change (Aza/veh), C12orf56 (ProbeSet 11735607_a_at) / Fold change (ACY-1035/veh), C12orf56 (ProbeSet 11735607_a_at) / Fold change (Aza/veh), FGFR1OP (ProbeSet 11751329_s_at) / Fold change (ACY-1035/veh), FGFR1OP (ProbeSet 11751329_s_at) / Fold change (Aza/veh), VPS36 (ProbeSet 11739960_a_at) / Fold change (ACY-1035/veh), VPS36 (ProbeSet 11739960_a_at) / RFU SYPL1 (11715823_x_at) / Fold change /veh SYPL1 (11715823_x_at) / RFU IGFBP7 (11715501_s_at) / Fold change /veh IGFBP7 (11715501_s_at) / RFU REEP3 (11722064_at) / Fold change /veh REEP3 (11722064_at) / RFU IGLL1 (11728026_x_at) / Fold change /veh IGLL1 (11728026_x_at): dose or concentration left out as unconfirmed
Conditions: MV-4-11 cells, 48 hours

In the case of Nc1ncn([C@@H]2O[C@H](CO)[C@@H](O)[C@H]2O)c(=O)n1 [azacitidine], the “RFU PLEKHG5 (11737974_s_at)” value is reported as 50.98 RFU.
